Columns and labels:
[1] = tested on: A375 (melanoma) cells; experiment: Proliferation Assay (CellTiter-Glo); format: cell-based; settings: 3 days incubation, CellTiter-Glo luminescence
Protocol: A375 (melanoma), Colo-205 (colon cancer), Miapaca (pancreatic), HPAFII (pancreatic), sNF02.0 (neurofibromatosis type 1), sNF96.2 (neurofibromatosis type 1) and 8505 (Thyroid) cells were grown and maintained in RPMI-1640 medium containing 100 U/mL penicillin-streptomycin and 10% fetal bovine serum. Cells were in growth medium in 96-well opaque-walled clear bottom plates and incubated in the CO2 incubator overnight before treatment. Cells were treated with compounds diluted in DMSO and a 10 point 3-fold serial dilutions were done. Plates were placed in 37° C., 5% CO2 to incubate for 3 days. Before they were developed by adding 100 μL of CellTiter-Glo reagent (Promega) to the assay plate, plates were shaken briefly for 2 mins and allowed to incubate at room temperature for 10 mins. The bottom of the plates was pasted with white back seal and luminescence was recorded with Flexstation3 with setting of luminescence, integration time 500 ms.
Compounds of Formula (I), (II) and (III) are active in this assay as noted in Table 2.

[2] = biological target: ERK2 (Homo sapiens (Human), UniProt P28482); experiment: Active ERK1 and ERK2 Kinase Assay (Mobility Shift Assay); format: biochemical; settings: activated ERK2, Mobility Shift Assay
Sequence of ERK2 (P28482 whole entry): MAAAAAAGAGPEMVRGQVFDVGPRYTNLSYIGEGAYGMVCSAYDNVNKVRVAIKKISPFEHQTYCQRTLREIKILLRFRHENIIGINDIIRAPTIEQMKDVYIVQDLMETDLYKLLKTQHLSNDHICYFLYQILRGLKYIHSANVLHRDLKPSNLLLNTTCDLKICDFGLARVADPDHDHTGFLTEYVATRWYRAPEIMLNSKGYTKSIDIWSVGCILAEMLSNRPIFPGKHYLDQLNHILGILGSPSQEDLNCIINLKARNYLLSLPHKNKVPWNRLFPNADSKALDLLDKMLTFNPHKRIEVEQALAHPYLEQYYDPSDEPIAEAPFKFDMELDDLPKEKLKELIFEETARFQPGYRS
Protocol: Activated ERK1 and ERK2 activity was determined in a Mobility Shift Assay (MSA) format as follows: Compound and kinase solution were prepared with assay buffer (20 mM HEPES, 0.01% Triton X-100, 2 mM DTT, pH7.5) and mixed and incubated in for 30 mins at rt. ERK1 & ERK2 were then activated by the addition of F1-Substrate, ATP and metal solution and incubated for 1 h at rt. After 1 h, the reaction was terminated by the addition of […] of Termination Buffer (QuickScout Screening Assist MSA; Carna Biosciences) to the well. The reaction mixture was applied to LabChip™ system (PerkinElmer), and the product and substrate peptide peaks were separated, analyzed and quantitated. The kinase reaction is evaluated by the product ratio calculated from peak heights of product (P) and substrate(S) peptides (P/(P+S)).

Compound	IC50 [1]	IC50 ([1]; Homo sapiens, A-375, 72 h)	IC50 [2]
CC(C)Oc1ccc(-c2n[nH]c3ccc(N4CCC5(CCN(CC(=O)N6CCN(c7ccc(-c8ncn(C)n8)cc7)CC6C)C5)C4=O)nc23)cn1 (mixture of isomers) [Example 85]	≤ 500 nM	–	–
CC(C)Oc1ccc(-c2n[nH]c3ccc(N4CCC5(CCN(C(C)C(=O)N6CC=C(c7ncc(-c8ncn(C)n8)s7)CC6)C5)C4=O)nc23)cn1 (mixture of isomers) [Example 95]	≥ 1000 nM	–	–
CC(C(=O)N1CC=C(c2ncc(-c3ncn(C)n3)s2)CC1)N1CCC2(CCN(c3ccc4[nH]nc(-c5ccc(F)cc5)c4n3)C2=O)C1 (mixture of isomers) [Example 96]	≥ 1000 nM	–	–
CC(C)Nc1cc(-c2c[nH]c(C(=O)N[C@H](CO)c3cccc(Cl)c3)c2)c(Cl)cn1 [BVD-523, reference compound]	–	≤ 500 nM	–
CC(C)Oc1ccc(-c2n[nH]c3ccc(N4CC[C@]5(CCN(CC(=O)N6CC=C(c7ccc(-c8ncn(C)n8)cc7)CC6)C5)C4=O)c(F)c23)cn1 [Example 1, (S)-2-(4-Fluoro-3-(6-isopropoxypyridin-3-yl)-1H-indazol-5-yl)-7-(2-(4-(4-(1-methyl-1H-1,2,4-triazol-3-yl)phenyl)-5,6-dihydropyridin-1(2H)-yl)-2-oxoethyl)-2,7-diazaspiro[4.4]nonan-1-one]	–	≥ 1000 nM	≥ 250 nM
COc1ccc(-c2n[nH]c3ccc(N4CC[C@]5(CCN(CC(=O)N6CC=C(c7ccc(-c8ncn(C)n8)cc7)CC6)C5)C4=O)cc23)cn1 [Example 2]	–	≤ 500 nM	≤ 50 nM
Cn1cnc(-c2ccc(C3=CCN(C(=O)CN4CC[C@]5(CCN(c6ccc7[nH]nc(N8CCC(F)(F)CC8)c7c6)C5=O)C4)CC3)cc2)n1 [Example 3, (S)-2-(3-(4,4-difluoropiperidin-1-yl)-1H-indazol-5-yl)-7-(2-(4-(4-(1-methyl-1H-1,2,4-triazol-3-yl)phenyl)-5,6-dihydropyridin-1 (2H)-yl)-2-oxoethyl)-2,7-diazaspiro[4.4]nonan-1-one]	–	500 to 1000 nM	≤ 50 nM
CN1CCC(c2n[nH]c3ccc(N4CC[C@]5(CCN(CC(=O)N6CC=C(c7ccc(-c8ncn(C)n8)cc7)CC6)C5)C4=O)cc23)CC1 [Example 4, (S)-7-(2-(4-(4-(1-methyl-1H-1,2,4-triazol-3-yl)phenyl)-3,6-dihydropyridin-1(2H)-yl)-2-oxoethyl)-2-(3-(1-methylpiperidin-4-yl)-1H-indazol-5-yl)-2,7-diazaspiro[4.4]nonan-1-one]	–	≥ 1000 nM	≥ 250 nM
CNC(=O)c1ccc(-c2n[nH]c3ccc(N4CC[C@]5(CCN(CC(=O)N6CC=C(c7ccc(-c8ncn(C)n8)cc7)CC6)C5)C4=O)cc23)cn1 [Example 6]	–	≤ 500 nM	≤ 50 nM
Cc1ncc(-c2n[nH]c3ccc(N4CC[C@]5(CCN(CC(=O)N6CC=C(c7ccc(-c8ncn(C)n8)cc7)CC6)C5)C4=O)nc23)s1 [Example 30]	–	≤ 500 nM	–
COc1ccc(F)c(-c2n[nH]c3ccc(N4CC[C@]5(CCN(CC(=O)N6CCC(c7ccc(-c8ncn(C)n8)cc7)CC6)C5)C4=O)cc23)n1 [Example 75]	≤ 500 nM	–	–
CC(C)Oc1ccc(-c2n[nH]c3ccc(N4CCC5(CCN(CC(=O)N6CC=C(c7ccc(-c8ncn(C)n8)cc7)CC6)C5)C4=O)nc23)cn1 (stereo not drawn) [Example 83]	≤ 500 nM	–	–
CCn1cnc(-c2cnc(C3=CCN(C(=O)CN4CC[C@]5(CCN(c6ccc7[nH]nc(-c8ccc(OC(C)C)nc8)c7n6)C5=O)C4)CC3)s2)n1 [Example 88]	≤ 500 nM	–	–
Cn1cnc(-c2cnc(C3=CCN(C(=O)CN4CC[C@]5(CCN(c6ccc7[nH]nc(-c8ccc(OC9CCC9)nc8)c7n6)C5=O)C4)CC3)s2)n1 [Example 90]	≤ 500 nM	–	–
CC(C)Oc1ccc(-c2n[nH]c3ccc(N4CC[C@]5(CCN(CC(=O)N6CC=C(c7ccc(-c8cn(C)cn8)cc7)CC6)C5)C4=O)nc23)cn1 [Example 98]	≥ 1000 nM	–	–
Cc1noc2ccc(-c3n[nH]c4ccc(N5CC[C@]6(CCN(CC(=O)N7CC=C(c8ccc(-c9ncn(C)n9)cc8)CC7)C6)C5=O)nc34)cc12 [Example 101]	–	≤ 500 nM	–
CC(C)Oc1ccc(-c2n[nH]c3ccc(N4CC[C@]5(CCN(CC(=O)N6CC=C(c7ccc(-c8ncn(C)n8)cn7)CC6)C5)C4=O)nc23)cc1 [Example 104]	–	≤ 500 nM	–
COc1cc(-c2n[nH]c3ccc(N4CC[C@]5(CCN(CC(=O)N6CC=C(c7ccc(-c8ncn(C)n8)cc7)CC6)C5)C4=O)nc23)ccc1OC(C)C [Example 107]	–	≤ 500 nM	–
CC(C)Oc1ccc(-c2n[nH]c3ccc(N4CC[C@]5(CCN(CC(=O)N6CC=C(c7ncc(-c8ncn(C)n8)s7)CC6)C5)C4=O)cc23)cc1 [Example 110]	–	≤ 500 nM	–
CC(C)n1cc(-c2n[nH]c3ccc(N4CC[C@]5(CCN(CC(=O)N6CC=C(c7ccc(-c8ncn(C)n8)cc7)CC6)C5)C4=O)nc23)ccc1=O [Example 111]	–	≤ 500 nM	–
CC(C)Oc1ccc(-c2n[nH]c3ccc(N4CC[C@]5(CCN(CC(=O)N6CCN(c7ncc(-c8ncn(C)n8)s7)CC6)C5)C4=O)nc23)cc1 [Example 112]	–	≤ 500 nM	–
Cn1cnc(-c2cnc(C3=CCN(C(=O)CN4CC[C@]5(CCN(c6ccc7[nH]nc(C8CC8)c7n6)C5=O)C4)CC3)s2)n1 [Example 113]	–	≤ 500 nM	–
CC(C)Oc1ccc(-c2n[nH]c3ccc(N4CC[C@]5(CCN(CC(=O)N6CCN(c7ccc(-c8ncn(C)n8)cc7)C[C@@H]6C)C5)C4=O)nc23)cn1 [Example 115]	–	≤ 500 nM	–
CC(C)Oc1ccc(-c2n[nH]c3ccc(N4CC[C@]5(CCN(CC(=O)N6CC=C(c7ccc(-c8ncn(C)n8)cc7)CC6)C5)C4=O)nc23)cc1F [Example 116]	≤ 500 nM	–	–
CC(C)Oc1ccc(-c2n[nH]c3ccc(N4CC[C@]5(CCN(CC(=O)N6CC=C(c7ccc(-c8ncn(C)n8)c(F)c7)CC6)C5)C4=O)nc23)cc1F [Example 117]	≤ 500 nM	–	–
Cn1cnc(-c2ccc(C3=CCN(C(=O)CN4CC[C@]5(CCN(c6ccc7[nH]nc(-c8ccc(F)c(N9CCCC9)n8)c7c6)C5=O)C4)CC3)cc2)n1 [Example 119]	500 to 1000 nM	–	–
Cn1nccc1Nc1nccc(-c2ccn([C@H](CO)c3ccc(Cl)c(F)c3)c(=O)c2)n1 [GDC-0994, reference compound]	–	500 to 1000 nM	–

Other lines, results leading:

IC50 [1]	IC50 ([1]; Homo sapiens, A-375, 72 h)	IC50 [2]	Compound
–	≤ 500 nM	≤ 50 nM	CNC(=O)c1cc(-c2n[nH]c3ccc(N4CC[C@]5(CCN(CC(=O)N6CC=C(c7ccc(-c8ncn(C)n8)cc7)CC6)C5)C4=O)cc23)ccn1 [Example 5]
≥ 1000 nM	–	–	CC(C)Oc1cnc(-c2n[nH]c3ccc(N4CC[C@]5(CCN(CC(=O)N6CC=C(c7ccc(-c8ncn(C)n8)cc7)CC6)C5)C4=O)cc23)c(F)c1 [Example 78]
≤ 500 nM	–	–	CC(C)Oc1ccc(-c2n[nH]c3ccc(N4CC[C@]5(CCN(CC(=O)N6CCC(c7ncc(-c8ncn(C)n8)s7)CC6)C5)C4=O)nc23)cn1 [Example 86]
≤ 500 nM	–	–	CC(C)Oc1ccc(-c2n[nH]c3ccc(N4CC[C@]5(CCN(CC(=O)N6CCN(c7ncc(-c8ncn(C)n8)s7)CC6)C5)C4=O)nc23)cn1 [Example 87]
≤ 500 nM	–	–	CC(C)Oc1ccc(-c2n[nH]c3ccc(N4CC[C@]5(CCN(CC(=O)N6CC=C(c7ncc(-c8ncn(C)n8)s7)CC6)C5)C4=O)nc23)cc1 [Example 94]
≤ 500 nM	–	–	CC(C)Oc1ccc(-c2n[nH]c3ccc(N4CC[C@]5(CCN(CC(=O)N6CC=C(c7ccc(-c8ncn(CCN(C)C)n8)cc7)CC6)C5)C4=O)nc23)cn1 [Example 97]
≤ 500 nM	–	–	CC(C)Oc1ccc(-c2n[nH]c3ccc(N4CC[C@]5(CCN(CC(=O)N6CC=C(c7ncc(-c8cn(C)cn8)s7)CC6)C5)C4=O)nc23)cn1 [Example 99]
≤ 500 nM	–	–	Cc1n[nH]c2ccc(-c3n[nH]c4ccc(N5CC[C@]6(CCN(CC(=O)N7CC=C(c8ccc(-c9ncn(C)n9)cc8)CC7)C6)C5=O)nc34)cc12 [Example 100]
–	≤ 500 nM	–	CC(C)Oc1ccc(-c2n[nH]c3ccc(N4CC[C@]5(CCN(CC(=O)N6CC=C(c7ccc(-c8ncn(C)n8)cc7)CC6)C5)C4=O)nc23)cc1 [Example 103]
–	500 to 1000 nM	–	CC(C)Oc1ccc(-c2n[nH]c3ccc(N4CC[C@]5(CCN(CC(=O)N6CC=C(c7ccc(-c8ncn(C)n8)nc7)CC6)C5)C4=O)nc23)cc1 [Example 105]
–	≤ 500 nM	–	COc1cc(-c2n[nH]c3ccc(N4CC[C@]5(CCN(CC(=O)N6CC=C(c7ncc(-c8ncn(C)n8)s7)CC6)C5)C4=O)nc23)ccc1OC(C)C [Example 108]
–	≤ 500 nM	–	CC(C)Oc1ccc(-c2n[nH]c3ccc(N4CC[C@]5(CCN(CC(=O)N6CC=C(c7ccc(-c8ncn(C)n8)cc7)CC6)C5)C4=O)cc23)cc1 [Example 109]
–	≥ 1000 nM	–	CC(C)Oc1ccc(-c2n[nH]c3ccc(N4CC[C@]5(CCN(CC(=O)N6CCN(c7ccc(-c8ncn(C)n8)cc7)C[C@H]6C)C5)C4=O)nc23)cn1 [Example 114]
≤ 500 nM	–	–	CC(C)Oc1ccc(-c2n[nH]c3ccc(N4CC[C@]5(CCN(CC(=O)N6CC=C(c7ncc(-c8ncn(C)n8)s7)CC6)C5)C4=O)nc23)cc1F [Example 118]
–	≤ 500 nM	–	O=C(Nc1ccc2[nH]nc(-c3ccncc3)c2c1)[C@@H]1CCN(CC(=O)N2CCN(c3ccc(-c4ncccn4)cc3)CC2)C1 [SCH772984, reference compound]

Source: patent US10934304B2, “Spirocyclic compounds” (Recurium IP Holdings, LLC, priority 2016, dated 2021)
